pEC50: −log10 of the molar value.

For one molecule, EC50, CC50 and Activity results are on record in ChEMBL document CHEMBL5365531, “Structure-Activity Relationship Studies of SARS-CoV-2 Main Protease Inhibitors Containing 4-Fluorobenzothiazole-2-carbonyl Moieties” (J Med Chem, 2023).

In data set [1] the test system is SARS-CoV-2. Kind of data set: Antiviral activity against SARS-CoV-2 hCoV-19/Japan/TKYS02037/2022 (omicron BA.2) infected in Vero E6 cells preincubated with cells for 1 day followed by viral infection and measured after 3 days by qRT-PCR analysis. The class given is functional, organism-based. To be noted: Severe acute respiratory syndrome coronavirus 2, hCoV-19/Japan/TKYS02037/2022 (omicron BA.2), Vero C1008.

Data set [2] deals with SARS-CoV-2. Kind of data set: Antiviral activity against SARS-CoV-2 infected in Vero E6 cells preincubated with cells for 1 day followed by viral infection and measured after 3 days by qRT-PCR analysis. The class given is functional, organism-based. Conditions: Severe acute respiratory syndrome coronavirus 2, Vero C1008. Background: In qPCR the cycle at which signal appears reflects the starting amount.

Data set [3] in a line: Cytotoxicity against African green monkey Vero E6 cells incubated for 3 days by WST-8 assay. Format: toxicity, cell-based, Vero C1008. To be noted: chlorocebus sabaeus, time 3 day. (Tetrazolium dyes change colour on reduction, which living cells bring about.)
The test system of data set [4] is SARS-CoV-2. Kind of data set: Antiviral activity against SARS-CoV-2 infected in Vero E6 cells preincubated with cells for 1 day in absence of HCl followed by viral infection and measured after 3 days by qRT-PCR analysis. Format: functional, organism-based. Conditions: Severe acute respiratory syndrome coronavirus 2, Vero C1008.
The subject of data set [5] is SARS-CoV-2. Kind of data set: Antiviral activity against SARS-CoV-2 infected in Vero E6 cells preincubated with cells for 1 day in presence of HCl treated compound followed by viral infection and measured after 3 days by qRT-PCR analysis. The class given is functional, organism-based. Conditions: Severe acute respiratory syndrome coronavirus 2, Vero C1008.
For the next data set, the system named is PBMC. Kind of data set: Cytotoxicity against human PBMC cells assessed as reduction in cell viability at 10 uM incubated for 12 days by CCK-8 assay. Format: toxicity, cell-based. Conditions: 288 h, time 12 day.
A further data set concerns MOLT-4. Kind of data set: Cytotoxicity against human MOLT-4 cells assessed as reduction in cell viability at 10 uM incubated for 12 days by CCK-8 assay. The class given is toxicity, cell-based. To be noted: molt-4, 288 h, time 12 day.
For a further data set, the system named is MT2. Kind of data set: Cytotoxicity against human MT2 cells assessed as reduction in cell viability at 10 uM incubated for 12 days by CCK-8 assay. Format: toxicity, cell-based. To be noted: mt2, 288 h, time 12 day.
Data set [6] can be described thus: Mutagenicity in Salmonella typhimurium TA100 assessed as inhibition of bacterial growth at 0.152 to 333 ug incubated in presence of S9 fraction by micro-Ames test. The class given is toxicity, subcellular, Salmonella enterica subsp. enterica serovar Typhimurium. To be noted: dose 0.152-333 µg.
Data set [7] can be described thus: Mutagenicity in Salmonella typhimurium TA1535 assessed as inhibition of bacterial growth at 0.152 to 333 ug incubated in presence of S9 fraction by micro-Ames test. Format: toxicity, subcellular, Salmonella enterica subsp. enterica serovar Typhimurium. To be noted: dose 0.152-333 µg.
The nature of data set [8]: Mutagenicity in Salmonella typhimurium TA98 assessed as inhibition of bacterial growth at 0.152 to 333 ug incubated in presence of S9 fraction by micro-Ames test. Format: toxicity, subcellular, Salmonella enterica subsp. enterica serovar Typhimurium. Conditions: dose 0.152-333 µg.
Data set [9] in a line: Mutagenicity in Salmonella typhimurium TA1537 assessed as inhibition of bacterial growth at 0.152 to 333 ug incubated in presence of S9 fraction by micro-Ames test. Format: toxicity, subcellular, Salmonella enterica subsp. enterica serovar Typhimurium. Conditions: dose 0.152-333 µg. A general note: The Ames test detects mutagens through reverse mutation in bacteria.
Data set [10] is described as follows: Mutagenicity in Escherichia coli WP2uvrA assessed as inhibition of bacterial growth at 0.152 to 333 ug incubated in presence of S9 fraction by micro-Ames test. To be noted: dose 0.152-333 µg. Format: toxicity, subcellular.
Data set [11] is described as follows: Mutagenicity in Salmonella typhimurium TA100 assessed as inhibition of bacterial growth at 0.152 to 333 ug incubated in absence of S9 fraction by micro-Ames test. Conditions: in vivo; dose 0.152-333 µg. The class given is toxicity, Salmonella enterica subsp. enterica serovar Typhimurium.
A short description of data set [12]: Mutagenicity in Salmonella typhimurium TA1535 assessed as inhibition of bacterial growth at 0.152 to 333 ug incubated in absence of S9 fraction by micro-Ames test. The class given is toxicity, Salmonella enterica subsp. enterica serovar Typhimurium. To be noted: in vivo; dose 0.152-333 µg.
Data set [13] can be described thus: Mutagenicity in Salmonella typhimurium TA98 assessed as inhibition of bacterial growth at 0.152 to 333 ug incubated in absence of S9 fraction by micro-Ames test. Format: toxicity, Salmonella enterica subsp. enterica serovar Typhimurium. To be noted: in vivo; dose 0.152-333 µg.
Data set [14] is described as follows: Mutagenicity in Salmonella typhimurium TA1537 assessed as inhibition of bacterial growth at 0.152 to 333 ug incubated in absence of S9 fraction by micro-Ames test. Format: toxicity, Salmonella enterica subsp. enterica serovar Typhimurium. To be noted: in vivo; dose 0.152-333 µg.
The nature of data set [15]: Mutagenicity in Escherichia coli WP2uvrA assessed as inhibition of bacterial growth at 0.152 to 333 ug incubated in absence of S9 fraction by micro-Ames test. Format: toxicity. To be noted: in vivo; dose 0.152-333 µg.
For another data set, the system named is Vero C1008. Kind of data set: Cytotoxicity against African green monkey Vero E6 cells infected with SARS-CoV-2 WK-521 upto 100 uM incubated for 3 days by immunostaining analysis. Conditions: chlorocebus sabaeus, vero c1008, 72 h, time 3 day. Format: toxicity, cell-based.

As to `CC(C)(C)[C@H](NC(=O)C(F)(F)F)C(=O)N1C[C@H]2[C@@H]([C@H]1C(=O)N[C@H](C#N)C[C@@H]1CCNC1=O)C2(C)C`, the negative logarithm of the EC50 (pEC50) (as a rule, the EC50 on a negative log10 scale, so that one unit is a factor of ten) in the data set with SARS-CoV-2 [1] is 5.85; with SARS-CoV-2 [2], 5.80; with SARS-CoV-2 [4] it was 5.85; in the data set on SARS-CoV-2 [5] it was 5.60. Also, the CC50 (in general, the concentration that lowers cell viability or growth by half) at 72 h in data set [3] is more than 100000 nM. In addition, the Activity result (in the data set with PBMC; in the data set on MOLT-4; in the data set with MT2; in data set [6]; in data set [7]; in [8]) was “Non-Toxic” throughout. Also, the Activity result in data set [9], in [10], in data set [11], in data set [12], in [13] and in [14] was “Non-Toxic” in each case. Further, the Activity result (in data set [15]; in the data set with Vero C1008) was “Non-Toxic” throughout.
